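96-well plates; 48 h exposure; 5 concentrations. Endpoints by linear interpolation between flanking doses. Not reached: highest tested concentration assigned. At the GI50, growth is halved.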 Activity calls are given as the source filed them. Rule as the data show it: active = GI50 up to about 1.1 µM and inactive = higher.
Key:
Experiment in all cases: growth of human tumour cells (NCI), 48 h
HCT-116 = test system: HCT-116
UACC-62 = test system: UACC-62
IGROV-1 = test system: IGROV-1
OVCAR-5 = test system: OVCAR-5
A549 = test system: A549
HT-29 = test system: HT-29
NCI-H23 = test system: NCI-H23
MDA-N = test system: MDA-N
CCRF-CEM = test system: CCRF-CEM
K562 = test system: K562
OVCAR-3 = test system: OVCAR-3
CAKI-1 = test system: CAKI-1
SR = test system: SR
T47D = test system: T47D
PC-3 = test system: PC-3
Hs-578T = test system: Hs-578T
MDA-MB-435 = test system: MDA-MB-435
SN12C = test system: SN12C
NCI/ADR-RES = test system: NCI/ADR-RES
OVCAR-8 = test system: OVCAR-8
SF-295 = test system: SF-295
COLO 205 = test system: COLO 205
SNB-75 = test system: SNB-75
BT-549 = test system: BT-549
OVCAR-4 = test system: OVCAR-4
NCI-H460 = test system: NCI-H460
UACC-257 = test system: UACC-257
NCI-H522 = test system: NCI-H522
HCT-15 = test system: HCT-15
KM12 = test system: KM12
ACHN = test system: ACHN
DU-145 = test system: DU-145
UO-31 = test system: UO-31
Malme-3M = test system: Malme-3M
SF-268 = test system: SF-268
TK-10 = test system: TK-10
MCF7 = test system: MCF7
HOP-92 = test system: HOP-92
786-0 = test system: 786-0
MDA-MB-231 = test system: MDA-MB-231
SW-620 = test system: SW-620
SK-MEL-28 = test system: SK-MEL-28
SK-MEL-5 = test system: SK-MEL-5
U-251 = test system: U-251
MOLT-4 = test system: MOLT-4
SNB-19 = test system: SNB-19
NCI-H226 = test system: NCI-H226
A498 = test system: A498
SF-539 = test system: SF-539
SK-OV-3 = test system: SK-OV-3
EKVX = test system: EKVX
HOP-62 = test system: HOP-62
RXF 393 = test system: RXF 393
HCC 2998 = test system: HCC 2998
M14 = test system: M14
HL-60 = test system: HL-60
LOX IMVI = test system: LOX IMVI
SK-MEL-2 = test system: SK-MEL-2

With `c1csc(-c2cc(-c3cccs3)c(-c3cccs3)s2)c1` the GI50 (HCT-116) was 40.9 µM (inactive), the GI50 (UACC-62) was 54.2 µM (inactive) and the GI50 (IGROV-1) was > 100 µM (inactive). The GI50 (OVCAR-5) was > 100 µM (inactive), the GI50 (A549) was > 100 µM (inactive) and the GI50 (HT-29) was 39.3 µM (inactive). The GI50 (NCI-H23) was 96.4 µM (inactive), the GI50 (MDA-N) was 32 µM (inactive) and the GI50 (CCRF-CEM) was 35.6 µM (inactive). The GI50 (K562) was 79.1 µM (inactive), the GI50 (OVCAR-3) was > 100 µM (inactive) and the GI50 (CAKI-1) was > 100 µM (inactive). For the same compound, the GI50 (SR) was 51.1 µM (inactive), the GI50 (T47D) was 4.69 µM (inactive) and the GI50 (PC-3) was > 100 µM (inactive). For the same compound, the GI50 (Hs-578T) was > 100 µM (inactive), the GI50 (MDA-MB-435) was 37.8 µM (inactive) and the GI50 (SN12C) was > 100 µM (inactive). The GI50 (NCI/ADR-RES) was > 100 µM (inactive), the GI50 (OVCAR-8) was > 100 µM (inactive) and the GI50 (SF-295) was > 100 µM (inactive). The GI50 (COLO 205) was 40.6 µM (inactive), the GI50 (SNB-75) was 21.2 µM (inactive) and the GI50 (BT-549) was > 100 µM (inactive). The GI50 (OVCAR-4) was > 100 µM (inactive), the GI50 (NCI-H460) was 47.2 µM (inactive) and the GI50 (UACC-257) was 55.3 µM (inactive). For the same compound, the GI50 (NCI-H522) was 69.3 µM (inactive), the GI50 (HCT-15) was 49.8 µM and the GI50 (KM12) was 46.5 µM (inactive). The GI50 (ACHN) was > 100 µM (inactive), the GI50 (DU-145) was > 100 µM (inactive) and the GI50 (UO-31) was > 100 µM (inactive). For the same compound, the GI50 (Malme-3M) was 62.2 µM (inactive), the GI50 (SF-268) was > 100 µM (inactive) and the GI50 (TK-10) was > 100 µM (inactive). For the same compound, the GI50 (MCF7) was 18.5 µM (inactive), the GI50 (HOP-92) was 91.8 µM (inactive) and the GI50 (786-0) was > 100 µM (inactive). The GI50 (MDA-MB-231) was 56.1 µM (inactive), the GI50 (SW-620) was > 100 µM (inactive) and the GI50 (SK-MEL-28) was 57.4 µM (inactive). The GI50 (SK-MEL-5) was 33.2 µM (inactive), the GI50 (U-251) was 75.5 µM (inactive) and the GI50 (MOLT-4) was 36.1 µM (inactive). The GI50 (SNB-19) was > 100 µM (inactive), the GI50 (NCI-H226) was > 100 µM (inactive) and the GI50 (A498) was > 100 µM (inactive). For the same compound, the GI50 (SF-539) was > 100 µM (inactive), the GI50 (SK-OV-3) was > 100 µM (inactive) and the GI50 (EKVX) was 55.8 µM (inactive). The GI50 (HOP-62) was > 100 µM (inactive), the GI50 (RXF 393) was 61.5 µM (inactive) and the GI50 (HCC 2998) was 58.5 µM (inactive). For the same compound, the GI50 (M14) was 47 µM (inactive).
In the case of `CC(C)N(C(=O)C12C3(C(=O)OC(C)(C)C)C4C5(C#N)C3C1(C(=O)OC(C)(C)C)C5C42C(=O)OC(C)(C)C)C(C)C` (stereo not given), the GI50 (HCT-116) is reported as 19.8 µM (inactive), the GI50 (UACC-62) is reported as 40.6 µM (inactive) and the GI50 (IGROV-1) is reported as > 100 µM (inactive). For the same compound, the GI50 (OVCAR-5) was > 100 µM (inactive), the GI50 (A549) was 93.5 µM (inactive) and the GI50 (HT-29) was 34.6 µM (inactive). For the same compound, the GI50 (NCI-H23) was > 100 µM (inactive), the GI50 (MDA-N) was 19.1 µM (inactive) and the GI50 (CCRF-CEM) was 10.9 µM (inactive). For the same compound, the GI50 (K562) was 34.6 µM (inactive), the GI50 (HL-60) was 20.1 µM (inactive) and the GI50 (OVCAR-3) was 47.8 µM (inactive). The GI50 (LOX IMVI) was 14.4 µM (inactive), the GI50 (CAKI-1) was 37.3 µM (inactive) and the GI50 (SR) was 21.7 µM (inactive). The GI50 (T47D) was 31.9 µM (inactive), the GI50 (PC-3) was 51.1 µM (inactive) and the GI50 (Hs-578T) was 28.7 µM (inactive). For the same compound, the GI50 (MDA-MB-435) was 27.5 µM (inactive), the GI50 (SN12C) was > 100 µM (inactive) and the GI50 (NCI/ADR-RES) was 76.4 µM (inactive). For the same compound, the GI50 (OVCAR-8) was > 100 µM (inactive), the GI50 (SK-MEL-2) was > 100 µM (inactive) and the GI50 (SF-295) was 58.2 µM (inactive). The GI50 (COLO 205) was 21.5 µM (inactive), the GI50 (SNB-75) was 0.149 µM (active) and the GI50 (BT-549) was > 100 µM (inactive). The GI50 (OVCAR-4) was 71.6 µM (inactive), the GI50 (NCI-H460) was 75.7 µM (inactive) and the GI50 (UACC-257) was 28.9 µM (inactive). For the same compound, the GI50 (NCI-H522) was 35.3 µM (inactive), the GI50 (HCT-15) was 89.5 µM and the GI50 (KM12) was > 100 µM (inactive). The GI50 (ACHN) was > 100 µM (inactive), the GI50 (DU-145) was > 100 µM (inactive) and the GI50 (UO-31) was 60.4 µM (inactive). The GI50 (SF-268) was > 100 µM (inactive), the GI50 (TK-10) was > 100 µM (inactive) and the GI50 (MCF7) was 14.4 µM (inactive). The GI50 (HOP-92) was 8.32 µM (inactive), the GI50 (786-0) was 34.6 µM (inactive) and the GI50 (MDA-MB-231) was 23 µM (inactive). For the same compound, the GI50 (SW-620) was 24.9 µM (inactive), the GI50 (SK-MEL-28) was 29.4 µM (inactive) and the GI50 (SK-MEL-5) was 60.1 µM (inactive). For the same compound, the GI50 (U-251) was 83.9 µM (inactive), the GI50 (MOLT-4) was 13.6 µM (inactive) and the GI50 (SNB-19) was > 100 µM (inactive). The GI50 (A498) was > 100 µM (inactive), the GI50 (SF-539) was > 100 µM (inactive) and the GI50 (EKVX) was 53 µM (inactive). For the same compound, the GI50 (HOP-62) was > 100 µM (inactive), the GI50 (RXF 393) was 12.9 µM (inactive) and the GI50 (HCC 2998) was 97.9 µM (inactive). For the same compound, the GI50 (M14) was 59.6 µM (inactive).
